Laboratory results as given in patent US11702442B2, “Cyclic dinucleotide compounds as sting agonists” (The Regents of the University of California, priority 2019, dated 2023).
Entries after “also recorded” stand apart in the source; their conditions may differ.

Tested on: STING pathway
Assay: Type-I IFN production in THP-1 cells detected with HEK-Blue IFN α/β reporter cells
Type: cell-based, human
Conditions: 5 μM CDN, 4 h incubation, compared with c-di-GMP
Experimental: THP-1 cells were seeded at a density of 100000 cells/well in a 96-well cell culture plate and differentiated with 25 nM of PMA for approximately 20 h prior to treatment with CDNs. Cells were transfected with 5 μM of CDNs in a permeabilization buffer containing 5 μg/mL of digitonin, then washed and incubated in RPMI medium with 2% FBS at 37° C. for 4 h. 50 μL of cell culture supernatant per well was transferred to 150 μL of HEK-Blue IFN α/β reporter cells seeded at 50000 cells/well in a 96-well cell culture plate and incubated at 37° C. overnight. The reporter cells were spun down the next day, and 50 μL of cell culture supernatant per well was transferred to a 96-well plate and added with 150 μL of QUANTI-Blue™ SEAP detection medium (InvivoGen). The samples were then incubated at 37° C. for 1 h 20 min before absorption was measured at 640 nm. The absorption signal of each sample was normalized to untreated samples. Two independent assays were performed in duplicate or triplicate. Error bars indicate SD.
To preliminarily determine whether the synthetic c-di-GMP analogues could activate the IFN response in eukaryotic cells, THP-1 cells were treated with 5 μM of c-di-GMP, c-GthGMP and c-di-thGMP.
Detecting type-I IFN production with reporter cells. […] The samples were then incubated at 37° C. for 80 min before absorption was measured at 640 nm with an EnSpire plate reader (PerkinElmer). […]

| Compound | type-I IFN induction |
| --- | --- |
| Nc1nc2c([C@@H]3O[C@@H]4COP(=O)(O)O[C@H]5[C@@H](O)[C@H](n6cnc7c(=O)[nH]c(N)nc76)O[C@@H]5COP(=O)(O)O[C@H]4[C@H]3O)scc2c(=O)[nH]1 [c-G^thGMP] | comparable efficiency to cdi-GMP; also recorded: comparable potency to c-di-GMP |
| Nc1nc2c([C@@H]3O[C@@H]4COP(=O)(O)O[C@H]5[C@@H](O)[C@H](c6scc7c(=O)[nH]c(N)nc67)O[C@@H]5COP(=O)(O)O[C@H]4[C@H]3O)scc2c(=O)[nH]1 [c-di-^thGMP] | no activity |
